Data as given in the supplement of paper PMC10331698.
± gives the standard deviation of the averaged measurements.

Tests used:
Test in all cases: level (log10 ratio to DMSO vehicle control); higher = higher biomarker level / cell amount than vehicle control
[1] = compound: FC(F)(F)C(F)(F)C(F)(F)C(F)(F)C(F)(F)C(F)(F)C(F)(F)I [1-Iodopentadecafluoroheptane]; details: in DMSO
Method: (§1)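 BioMAP Diversity Plus panel of 12 human primary cell co-culture systems (3C, 4H, LPS, SAg, BT, BF4T, BE3C, CASM3C, HDF3CGF, KF3CT, MyoF, Mphg). Compounds were added 1 h before stimulation and left for 24 h (MyoF 48 h; BT 72 h for soluble read-outs or 6 d for IgG). Biomarkers were read by ELISA, cytotoxicity by SRB, PBMC viability and proliferation by Alamar Blue. Each well value was divided by the mean of 8 DMSO control wells on the same plate and log10 transformed; duplicate blinded samples were tested at 4 concentrations.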

[2] = compound: COC(=O)C(F)(F)C(F)(F)OC(F)(C(F)(F)F)C(F)(F)OC(F)=C(F)F [Methyl perfluoro(3-(1-ethenyloxypropan-2-yloxy)propanoate)]; details: in DMSO
Method: as §1

[3] = compound: O=S(=O)(O)CCC(F)(F)C(F)(F)C(F)(F)C(F)(F)C(F)(F)C(F)(F)F [6:2 Fluorotelomer sulfonic acid]; details: in DMSO
Method: as §1

[4] = compound: FC(F)(F)C(F)(F)CNCC(F)(F)C(F)(F)F [Bis(1H,1H-perfluoropropyl)amine]; details: in DMSO
Method: as §1

Nonafluoropentanamide = compound: NC(=O)C(F)(F)C(F)(F)C(F)(F)C(F)(F)F [Nonafluoropentanamide]; details: in DMSO
Method: as §1

[5] = compound: C=CC(=O)OCC(F)(F)C(F)(F)C(F)(F)COC(=O)C=C [1H,1H,5H,5H-Perfluoro-1,5-pentanediol diacrylate]; details: 6700 nM; in DMSO
Method: as §1

Hexafluoroamylene glycol = compound: OCC(F)(F)C(F)(F)C(F)(F)CO [Hexafluoroamylene glycol]; details: in DMSO
Method: as §1

[6] = compound: NS(=O)(=O)C(F)(F)C(F)(F)C(F)(F)C(F)(F)C(F)(F)C(F)(F)F [Perfluorohexanesulfonamide]; details: in DMSO
Method: as §1

| Test System | level (log10) ([1]; 6700 nM) | level (log10) ([1]; 20000 nM) | level (log10) ([2]; 6700 nM) | level (log10) ([2]; 20000 nM) | level (log10) ([3]; 6700 nM) | level (log10) ([3]; 20000 nM) | level (log10) ([3]; 60000 nM) | level (log10) ([4]; 6700 nM) | level (log10) ([4]; 20000 nM) | level (log10) ([4]; 60000 nM) | level (log10) (Nonafluoropentanamide; 6700 nM) | level (log10) (Nonafluoropentanamide; 20000 nM) | level (log10) (Nonafluoropentanamide; 60000 nM) | level (log10) [5] | level (log10) (Hexafluoroamylene glycol; 6700 nM) | level (log10) (Hexafluoroamylene glycol; 20000 nM) | level (log10) (Hexafluoroamylene glycol; 60000 nM) | level (log10) ([6]; 6700 nM) | level (log10) ([6]; 20000 nM) | level (log10) ([6]; 60000 nM) |
| --- | --- | --- | --- | --- | --- | --- | --- | --- | --- | --- | --- | --- | --- | --- | --- | --- | --- | --- | --- | --- |
| KF3CT:TIMP-2 | -0.009 ± 0.021 | -0.0225 ± 0.00071 | 0.0105 ± 0.018 | 0.0265 ± 0.0092 | -0.029 ± 0.0085 | -0.0035 ± 0.012 | 0.0015 ± 0.012 | 0.001 ± 0.017 | -0.024 ± 0.014 | 0.016 ± 0.054 | -0.0245 ± 0.0092 | -0.007 ± 0.011 | 0.011 ± 0.037 | -0.056 ± 0.021 | -0.0095 ± 0.026 | -0.019 ± 0.0085 | -0.007 ± 0.014 | -0.01 ± 0.02 | -0.0115 ± 0.0064 | 0.008 ± 0.0057 |
| MyoF:SRB | -0.0135 ± 0.00071 | -0.131 ± 0.012 | 0.004 ± 0.0042 | 0.018 ± 0.0099 | -0.002 ± 0.0014 | 0.0005 ± 0.0092 | -0.0015 ± 0.0021 | 0 ± 0.0057 | -0.011 ± 0.0057 | -0.011 ± 0.0042 | -0.003 ± 0.0085 | 0.009 ± 0.0085 | 0.005 ± 0.016 | -0.0205 ± 0.0035 | 0.002 ± 0.0028 | -0.0045 ± 0.0035 | -0.002 ± 0.0057 | -0.0185 ± 0.0035 | -0.054 ± 0.033 | -0.105 ± 0.0092 |
| 3C:CCL2/MCP-1 | -0.0175 ± 0.005 | 0.023 ± 0.027 | 0.0045 ± 0.0064 | 0.0175 ± 0.032 | -0.0095 ± 0.021 | -0.017 ± 0.024 | 0.012 ± 0.0071 | 0.004 ± 0.031 | -0.0225 ± 0.012 | 0.006 ± 0.016 | -0.0045 ± 0.016 | -0.0125 ± 0.018 | 0.011 ± 0.058 | -0.026 ± 0.0042 | -0.024 ± 0.013 | -0.013 ± 0.0042 | -0.003 | 0.0075 ± 0.0021 | 0.001 ± 0.014 | -0.0255 ± 0.032 |
| lMphg:CCL2/MCP-1 | 0.009 ± 0.0085 | 0.018 ± 0.02 | -0.0045 ± 0.0064 | 0.0335 ± 0.044 | -0.0195 ± 0.012 | -0.005 ± 0.0099 | 0.027 ± 0.025 | 0.0015 ± 0.0035 | 0.001 ± 0.013 | -0.02 ± 0.042 | 0.0005 ± 0.0021 | 0.0025 ± 0.049 | 0.0225 ± 0.037 | -0.048 ± 0.0085 | -0.001 ± 0.03 | -0.0115 ± 0.0064 | -0.007 ± 0.023 | -0.018 ± 0.054 | -0.053 ± 0.017 | -0.123 ± 0.054 |
| CASM3C:Proliferation | -0.003 ± 0.027 | -0.045 ± 0.0042 | -0.012 ± 0.065 | 0.036 ± 0.05 | -0.0095 ± 0.029 | 0.024 ± 0.033 | 0.026 ± 0.018 | -0.115 ± 0.024 | 0.0135 ± 0.037 | -0.0005 ± 0.076 | -0.032 ± 0.058 | -0.017 ± 0.03 | -0.0505 ± 0.035 | -0.289 ± 0.086 | -0.0005 ± 0.0021 | -0.0235 ± 0.0092 | 0.007 ± 0.0014 | 0.0015 ± 0.013 | 0.0285 ± 0.03 | 0.0255 ± 0.018 |
| 3C:SRB | -0.001 | 0.001 ± 0.0014 | 0.006 ± 0.0071 | 0.004 ± 0.0042 | 0.001 ± 0.0099 | 0.002 ± 0.0057 | -0.0045 ± 0.028 | -0.02 ± 0.021 | 0.0105 ± 0.0092 | 0.0075 ± 0.0064 | -0.002 ± 0.0042 | 0.0005 ± 0.0035 | -0.011 | -0.0305 ± 0.011 | -0.01 ± 0.0085 | -0.0035 ± 0.021 | 0 ± 0.021 | -0.01 ± 0.011 | -0.0125 ± 0.0078 | -0.139 ± 0.014 |
| BE3C:uPA | -0.0135 ± 0.0035 | -0.009 ± 0.0099 | 0.0005 ± 0.0035 | 0.0305 ± 0.012 | -0.008 ± 0.0099 | -0.005 ± 0.0028 | 0.01 ± 0.0057 | -0.0155 ± 0.0064 | -0.0185 ± 0.0092 | -0.003 ± 0.013 | 0.0115 ± 0.016 | 0.009 ± 0.0099 | 0.0105 ± 0.0078 | -0.015 ± 0.0028 | -0.0055 ± 0.0078 | -0.013 ± 0.0014 | -0.004 | -0.0115 ± 0.032 | 0.0025 ± 0.037 | -0.0365 ± 0.037 |
| CASM3C:CXCL9/MIG | -0.0165 ± 0.025 | 0.018 ± 0.018 | -0.0025 ± 0.0078 | -0.007 ± 0.013 | -0.0445 ± 0.0078 | -0.0315 ± 0.0035 | -0.015 ± 0.045 | 0.0175 ± 0.025 | 0.006 ± 0.0014 | -0.0065 ± 0.069 | -0.011 ± 0.013 | -0.029 ± 0.051 | -0.0075 ± 0.074 | -0.229 ± 0.011 | -0.03 ± 0.011 | -0.0225 ± 0.016 | 0.009 ± 0.024 | 0.003 ± 0.0042 | -0.0065 ± 0.005 | -0.003 ± 0.023 |
| KF3CT:CXCL8/IL-8 | 0.0135 ± 0.0021 | 0.014 ± 0.0028 | 0.001 ± 0.025 | 0.034 ± 0.014 | -0.0005 ± 0.035 | -0.001 ± 0.027 | -0.0455 ± 0.022 | -0.0005 ± 0.005 | -0.0065 ± 0.0092 | 0.0115 ± 0.015 | -0.0465 ± 0.036 | -0.03 ± 0.014 | -0.0165 ± 0.03 | -0.041 ± 0.027 | 0.001 ± 0.044 | -0.0015 ± 0.028 | 0.004 ± 0.02 | -0.039 ± 0.023 | -0.0345 ± 0.0092 | -0.0395 ± 0.03 |
| 3C:CXCL9/MIG | 0.001 ± 0.0099 | -0.002 ± 0.0042 | -0.0025 ± 0.012 | -0.0005 ± 0.00071 | -0.0065 ± 0.0021 | -0.009 ± 0.017 | -0.006 ± 0.0042 | 0.0005 ± 0.013 | 0.003 ± 0.0071 | 0.016 ± 0.025 | -0.0005 ± 0.0021 | -0.0005 ± 0.021 | 0.0065 ± 0.012 | -0.017 ± 0.0085 | -0.006 ± 0.0071 | -0.01 ± 0.0057 | 0.007 | -0.0165 ± 0.005 | -0.0055 ± 0.0021 | 0.009 ± 0.0071 |
| lMphg:CCL3/MIP-1alpha | 0.0225 ± 0.023 | 0.0175 ± 0.049 | 0.032 ± 0.031 | 0.0655 ± 0.026 | 0.014 ± 0.021 | 0.072 ± 0.02 | 0.0565 ± 0.039 | 0.039 ± 0.016 | 0.002 ± 0.014 | -0.009 ± 0.0085 | 0.0025 ± 0.057 | -0.0015 ± 0.06 | 0 ± 0.045 | -0.008 ± 0.0057 | 0.03 ± 0.072 | -0.0125 ± 0.023 | 0.023 ± 0.034 | -0.0025 ± 0.00071 | -0.034 ± 0.044 | -0.0145 ± 0.0092 |
| KF3CT:CXCL10/IP-10 | -0.005 ± 0.014 | -0.0085 ± 0.00071 | -0.0235 ± 0.0021 | -0.023 ± 0.0057 | -0.0105 ± 0.011 | -0.0055 ± 0.015 | -0.0135 ± 0.00071 | -0.0045 ± 0.0078 | -0.0025 ± 0.0035 | 0.0085 ± 0.00071 | -0.011 ± 0.0071 | 0.009 ± 0.0042 | -0.001 ± 0.017 | -0.023 ± 0.0085 | 0.0015 ± 0.015 | -0.008 ± 0.0099 | -0.0035 ± 0.0092 | -0.012 ± 0.013 | -0.019 ± 0.014 | -0.0875 ± 0.0035 |
